# Experimental data taken from US9828398B2, “Compound for bone scanning and use thereof” (TAIWAN HOPAX CHEMS. MFG. CO., LTD., priority 2015, dated 2017).
# Test: Planar scintigraphy of 111In-compounds in normal rats
# Assay type: in vivo
# Conditions: 1, 24 and 48 hours after ^111In-OMS or ^111In-OB121
# Protocol: FIG. 31 is planar scintigraphy of ^111In-Compounds ([…], iv, at 1-48 hours acquired 500,000, count) in normal rats.
# Pamidronate (PAM), Methyl diphosphonate (MDP) and OMS are bone-related agents and were used as control group in present invention. Scintigraphic images, captured by a gamma camera equipped with low-energy, parallel-hole collimator or micro-PET, were obtained in 0.5-2 hours. The selected images are shown in FIGS. 29 and 30, wherein FIG. 29 compares the planar images of 30, 60, and 120 min of normal rats which were taken ^99mTc-PAM, ^99mTc-MDP, ^99mTc-OMS, ^99mTc-OB141, ^99mTc-OB 121 and ^99mTc-DTPA-BP respectively. FIG. 30 compares the planar images of 20, 60, and 150 min of normal rats which were taken ^99mTc-MDP, ^99mTc-DTPA-AMDP, and ^99mTc-MAMA-AMDP respectively. Higher joint-to-muscle (J/M) or bone-to-muscle (B/M) ratios and the better quality of bone images were achieved. […] Besides, as tetraazacyclic groups are very lipophilic so that they may have potential applications in the treatment of osteoporosis. Thus, tetraazacyclic groups were labeled with In-111 for longer observation.
smiles,measurement,value
"O=P(O)(O)C(O)(CN1CCN(CC(O)(P(=O)(O)O)P(=O)(O)O)CCN(CC(O)(P(=O)(O)O)P(=O)(O)O)CCN(CC(O)(P(=O)(O)O)P(=O)(O)O)CC1)P(=O)(O)O [OB-121, 1,4,7,10-Tetraazacyclododecane-1,4,7,10-tetrakis(2-hydroxy-ethylenebisphosphonate)]",quality of planar images,better compound for getting high quality images
